Bounds are passed on as bounds.

A short description of data set [1]: Cyclic voltammetry, reduction of nitro group. The class given is physicochemical. Particulars: for −EpaIII: anodic peak potential of couple IIIc/IIIa; for −EpaIII / −EpcIII / −E1/2: given with inverted sign, vs. Ag/AgCl electrode in DMSO; for −EpcIII: cathodic peak potential of couple IIIc/IIIa; for Ipa/Ipc: current ratio RNO2/RNO2•−, couple IIIc/IIIa, DMSO; for −E1/2: half-wave potential of couple IIIc/IIIa. The protocol: Cyclic Voltammetry (CV) was carried out using a Metrohm Autolab instrument model PGSTAT204, using dimethyl sulfoxide (DMSO) as the solvent (1 mM solutions), tetrabutylammonium perchlorate (0.1 M TBAP) as the supporting electrolyte, a hanging drop mercury electrode (HDME) as the working electrode, Ag/AgCl (3M KCl) as the reference electrode, and a graphite rod as the counter electrode. All measurements were performed after bubbling with nitrogen (N2) for 10 min.
Using Nicholson’s procedure, the Ipa/Ipc values (RNO2/RNO2^•−) were measured from each cyclic voltammogram with a scan rate between 0.1 and 2.5 V/s.

In a further data set the test system is Dm28c trypomastigotes. Put plainly: Trypomastigote viability study (MTT). The class given is cell-based, Trypanosoma cruzi. The following applies: for SI Trypomastigote: Selectivity Index IC50 macrophages RAW 264.7/IC50 trypomastigotes Dm28c; for IC50: Trypanosoma cruzi, T. cruzi Dm28c trypomastigotes, 24 h, MTT. On the procedure: Vero cells (ATCC CCL-81) were infected with Dm28c trypomastigotes at a 1:3 (cell: parasite) ratio. T. cruzi trypomastigotes were initially obtained from primary cultures of peritoneal macrophage from chagasic mice. […] Vero cell cultures were then infected with trypomastigotes and incubated at 37 °C in humidified air and 5% CO2 for 5–7 days. After that time, the culture medium was collected and centrifuged at 500× g for 5 min. The trypomastigote-containing pellet was re-suspended in RPMI 1640 supplemented with inactivated FBS and penicillin–streptomycin at a final 1 × 10^7 parasites/mL density. Trypomastigote viability assays were performed using the MTT reduction method as described previously. Then, 1 × 10^7 parasites/mL was incubated in RPMI 1640 with inactivated FBS at 37 °C for 24 h with or without the studied compounds.

Data set [2] has as its system T. cruzi epimastigote stage (Dm28c strain). Description: Epimastigotes viability study (MTT). The following applies: for SI Epimastigote: Selectivity Index IC50 macrophages RAW 264.7/IC50 epimastigotes Dm28c; for IC50: Trypanosoma cruzi, T. cruzi Dm28c epimastigotes, 24 h, MTT. The class given is cell-based, Trypanosoma cruzi. The protocol:
The trypanocidal activity was evaluated against the T. cruzi epimastigote stage (Dm28c strain). It was measured through the MTT assay using 0.22 mg/mL phenazine methosulfate (as an electron carrier). T. cruzi epimastigote from the author's collection (Programa de Farmacología Molecular y Clínica, Facultad de Medicina, Universidad de Chile, Santiago, Chile) were grown at 28 °C in liver infusion tryptase (LIT) medium, as reported earlier, but replacing blood with 4 μM hemin. […] fetal bovine serum (FBS) was added to a final concentration of 10% v/v. In this colorimetric assay for testing the trypanocidal activity, the compounds were dissolved in DMSO. They were added to 3 × 10^6 parasites/mL at 100 μM final concentrations in RPMI 1640 culture medium without phenol red for 24 h at 28 °C. The final concentration of DMSO was less than 0.1% v/v. […] The MTT assay, which was described previously, determined the viability of the epimastigotes.

The next data set concerns RAW 264.7 cells. Put plainly: Cytotoxicity MTT assay on RAW 264.7 cells. The class given is cell-based. Particulars: Mus musculus, RAW264.7, in vitro cytotoxicity, murine RAW 264.7 macrophages. On the procedure:
The compounds under study, dissolved in dimethylsulfoxide (DMSO), were added to the culture media at 10–200 μM. RAW 264.7 cells were cultured in 96-well plates (5 × 10^4 cells per well), and 100 μL of 0.5 mg/mL MTT was added to each well. The DMSO final concentration was less than 0.1% v/v. After incubation for 4 h at 37 °C, the generated water-insoluble formazan dye was dissolved by adding 100 μL of 10% w/v sodium dodecyl sulfate (SDS) in 0.01 M HCl. The plates were further incubated overnight at 37 °C; […] 0.5% of Triton X-100 was added as a positive control. The plates were further incubated overnight at 37 °C, and the optical density of the wells was determined using a microplate reader (Asys Expert Plus©, Asys Hitachi, Vienna, Austria) at 570 nm. Under these conditions, the optical density is directly proportional to the viable cell number in each well. All experiments were performed at least thrice and data were reported as means and their standard deviations from triplicate cultures. Results are reported as IC50 regarding the control (uninfected cells in culture medium)

Take `Cn1c2ccc([N+](=O)[O-])cc2c(=O)n1Cc1ccc(Br)cc1` [Compound 14, 2-(4-Bromobenzyl)-1-methyl-5-nitro-1,2-dihydro-3H-indazol-3-one]: the melting point is 144 to 146 °C. For the same molecule, in data set [1], the “−EpaIII” value worked out at 0.99 V, the “−EpcIII” value turned out to be 1.20 V, the Ipa/Ipc came to 0.94 and the “−E1/2” value is given as 1.10 V. Further, in the data set on Dm28c trypomastigotes, the “SI Trypomastigote” value is 3.5 and 48.6 ± 1.2 µM corresponded to half-maximal inhibition (IC50). Moreover, in data set [2], the “SI Epimastigote” value turned out to be 2.1 and the IC50 was found to be 83.9 ± 1.9 µM. The same molecule returned an IC50 with RAW 264.7 cells of 172 ± 2.3 µM.

Consider `Cn1c2ccc([N+](=O)[O-])cc2c(=O)n1Cc1ccccc1C(F)(F)F` [Compound 17, 1-Methyl-5-nitro-2-[2-(trifluoromethyl)benzyl]-1,2-dihydro-3H-indazol-3-one], for which the melting point was 211 to 213 °C. In data set [1], the “−EpaIII” value came out at 0.82 V, the “−EpcIII” value worked out at 1.37 V, the Ipa/Ipc is given as 0.96 and the “−E1/2” value is 1.10 V. Besides, in the data set with Dm28c trypomastigotes, the “SI Trypomastigote” value is on record as 1.9 and the IC50 amounted to 89.3 ± 1 µM. In data set [2], the “SI Epimastigote” value is 4.7 and the IC50 is 35.4 ± 1.1 µM. In the data set on RAW 264.7 cells, this molecule showed an IC50 of 166 ± 2.3 µM.

As to `O=[N+]([O-])c1ccc2c(c1)c(O)nn2CCCCCCCl` [Compound 21], in data set [1], the “−EpaIII” value is listed as 1.27 V, the “−EpcIII” value was 1.37 V, the Ipa/Ipc was found to be 0.56 and the “−E1/2” value is 1.32 V. Further, in the data set with Dm28c trypomastigotes, the “SI Trypomastigote” value is reported as above 2.1 and the IC50 turned out to be 91.2 ± 2.2 µM. Further, in data set [2], the “SI Epimastigote” value is above 2.4 and half-maximal inhibition (IC50) required 84.3 ± 2.1 µM. This molecule also came in with an IC50 in the data set on RAW 264.7 cells above 200 µM.

As to `Cn1nc(O)c2cc([N+](=O)[O-])ccc21` [Compound 19, 1-methyl-5-nitroindazol-3-ol], in data set [1], the “−EpaIII” value is listed as 1.28 V, the “−EpcIII” value worked out at 1.35 V, the Ipa/Ipc is given as 0.65 and the “−E1/2” value turned out to be 1.32 V. Moreover, in the data set with Dm28c trypomastigotes, the IC50 is above 100 µM. Also, the IC50 in data set [2] was above 100 µM. In the data set with RAW 264.7 cells, this molecule came in with an IC50 above 200 µM.

With `Cn1c2ccc([N+](=O)[O-])cc2c(=O)n1Cc1ccc(F)cc1` [Compound 8, 2-(4-Fluorobenzyl)-1-methyl-5-nitro-1,2-dihydro-3H-indazol-3-one], the melting point lay within 139 to 141 °C. Moreover, in data set [1], the “−EpaIII” value amounted to 0.99 V, the “−EpcIII” value came to 1.14 V, the Ipa/Ipc was 1.00 and the “−E1/2” value is on record as 1.07 V. Further, in the data set with Dm28c trypomastigotes, the “SI Trypomastigote” value is on record as 2.0 and inhibition was half-maximal at 57.8 ± 1.3 µM (IC50). Besides, in data set [2], the “SI Epimastigote” value was determined as 3.2 and the IC50 is 36.4 ± 0.8 µM. In the data set on RAW 264.7 cells, this molecule gave a concentration for half-maximal inhibition (IC50) of 116 ± 1.7 µM.

The molecule `CC(c1ccccc1)n1c(=O)c2cc([N+](=O)[O-])ccc2n1C` (stereo not drawn) [Compound 18, 1-Methyl-5-nitro-2-(1-phenylethyl)-1,2-dihydro-3H-indazol-3-one] had a melting point of 155 to 157 °C. Besides, in data set [1], the “−EpaIII” value amounted to 1.02 V, the “−EpcIII” value came out at 1.12 V, the Ipa/Ipc was 0.91 and the “−E1/2” value was 1.07 V. Further, the IC50 in the data set with Dm28c trypomastigotes is above 100 µM. In data set [2], the “SI Epimastigote” value is listed as above 2.9 and the half-maximal inhibitory concentration (IC50) came to 68.7 ± 1.7 µM. The IC50 in the data set with RAW 264.7 cells was above 200 µM.

The molecule `Cn1c2ccc([N+](=O)[O-])cc2c(=O)n1Cc1cccc(F)c1` [Compound 7, 2-(3-Fluorobenzyl)-1-methyl-5-nitro-1,2-dihydro-3H-indazol-3-one] had a melting point of 125 to 127 °C. Also, in data set [1], the “−EpaIII” value was determined as 0.98 V, the “−EpcIII” value is recorded as 1.20 V, the Ipa/Ipc was 1.00 and the “−E1/2” value was determined as 1.09 V. Besides, in the data set with Dm28c trypomastigotes, the “SI Trypomastigote” value is 2.3 and the IC50 amounted to 41.2 ± 0.8 µM. Moreover, in data set [2], the “SI Epimastigote” value is 3.2 and the IC50 amounted to 29.5 ± 1.5 µM. Further, the IC50 in the data set on RAW 264.7 cells came to 95.1 ± 1.1 µM.

Turning to `O=c1c2cc([N+](=O)[O-])ccc2[nH]n1-c1ccccc1` [Compound 4], in data set [1], the “−EpaIII” value is on record as 1.27 V, the “−EpcIII” value is reported as 1.37 V, the Ipa/Ipc is given as 0.63 and the “−E1/2” value was 1.32 V. Also, in the data set on Dm28c trypomastigotes, the “SI Trypomastigote” value was 1.5 and the IC50 stood at 63.4 ± 1.4 µM. In addition, in data set [2], the “SI Epimastigote” value was found to be 2.1 and half-maximal inhibition (IC50) required 46.9 ± 3.4 µM. Besides, the IC50 in the data set with RAW 264.7 cells was found to be 97.5 ± 1.2 µM.

On to `Cn1c2ccc([N+](=O)[O-])cc2c(=O)n1Cc1cccc(Cl)c1` [Compound 10, 2-(3-Chlorobenzyl)-1-methyl-5-nitro-1,2-dihydro-3H-indazol-3-one], for which the melting point fell in the range of 154 to 156 °C. In data set [1], the “−EpaIII” value was found to be 0.96 V, the “−EpcIII” value came out at 1.17 V, the Ipa/Ipc came to 0.93 and the “−E1/2” value is on record as 1.07 V. Besides, in the data set on Dm28c trypomastigotes, the “SI Trypomastigote” value is on record as above 3.7 and the midpoint of inhibition, the IC50, lay at 54.2 ± 1.1 µM. In data set [2], the “SI Epimastigote” value is recorded as above 5.0 and the IC50 was found to be 40.3 ± 2 µM. In the data set on RAW 264.7 cells, this molecule showed an IC50 above 200 µM.

Consider `O=[N+]([O-])c1ccc2c(c1)c(O)nn2CCCCCO` [Compound 20], for which, in data set [1], the “−EpaIII” value is 1.28 V, the “−EpcIII” value amounted to 1.38 V, the Ipa/Ipc stood at 0.67 and the “−E1/2” value turned out to be 1.33 V. Also, the IC50 in the data set with Dm28c trypomastigotes was above 100 µM. The molecule further returned an IC50 in data set [2] above 100 µM. The molecule further displayed an IC50 in the data set with RAW 264.7 cells above 200 µM.

Consider `CC1CS(=O)(=O)CCN1/N=C/c1ccc([N+](=O)[O-])o1` (stereo not drawn) [NFX, nifurtimox, reference compound], for which, in data set [1], the “−EpaIII” value stood at 0.85 V, the “−EpcIII” value is given as 0.91 V, the Ipa/Ipc is 1.01 and the “−E1/2” value is listed as 0.88 V. In addition, in the data set with Dm28c trypomastigotes, the “SI Trypomastigote” value is recorded as 12.3 and it took 21.5 ± 1.4 µM to reach half-maximal inhibition (IC50). In addition, in data set [2], the “SI Epimastigote” value came to 15.1 and half-maximal inhibition (IC50) was put at 17.4 ± 1.3 µM. Moreover, the IC50 with RAW 264.7 cells was determined as 263.4 ± 2.2 µM.

For the molecule `Cn1c2ccc([N+](=O)[O-])cc2c(=O)n1Cc1ccccc1F` [Compound 6], in data set [1], the “−EpaIII” value is given as 0.94 V, the “−EpcIII” value is 1.22 V, the Ipa/Ipc was 0.99 and the “−E1/2” value amounted to 1.08 V. Moreover, in the data set on Dm28c trypomastigotes, the “SI Trypomastigote” value is given as 1.5 and half-maximal inhibition (IC50) was put at 56.4 ± 1.5 µM. Further, in data set [2], the “SI Epimastigote” value is on record as 2.6 and the IC50 came to 32.9 ± 0.7 µM. This molecule registered an IC50 in the data set with RAW 264.7 cells of 83.9 ± 0.9 µM.

On to `COc1nn(C)c2ccc([N+](=O)[O-])cc12` [Compound 23], for which, in data set [1], the “−EpaIII” value is on record as 1.25 V, the “−EpcIII” value was determined as 1.37 V, the Ipa/Ipc is listed as 0.78 and the “−E1/2” value was found to be 1.31 V. In the data set with Dm28c trypomastigotes, this molecule displayed an IC50 above 100 µM. In data set [2], this molecule displayed a half-maximal inhibitory concentration (IC50) above 100 µM. Besides, the IC50 in the data set with RAW 264.7 cells was above 200 µM.

Consider `O=C(Cn1ccnc1[N+](=O)[O-])NCc1ccccc1` [BNZ, benznidazole, reference compound], for which, in data set [1], the “−EpaIII” value is on record as 0.93 V, the “−EpcIII” value amounted to 1.08 V, the Ipa/Ipc stood at 0.98 and the “−E1/2” value is given as 1.00 V.
